{"source": "patent EP1181934A1", "about": "“INHIBITORS FOR OPTIC HYPOFUNCTION CAUSED BY OPTIC NERVE CELL INJURY INDUCED BY FACTORS OTHER THAN OPTIC CIRCULATORY DISORDER” (Senju Pharmaceutical Co., Ltd., priority 1999, dated 2000)", "key": {"retinal ganglion cells [1]": {"system": "retinal ganglion cells", "test": "central retinal artery and vein ligation model (ischemia/re-perfusion), retinal ganglion cell count", "format": "in vivo", "conditions": "male SD rats; hemostasis 55 minutes; 10 µg/kg via the tail vein twice (15 min before hemostasis and immediately after declamping); day 7 from release from ischemia; vs ischemic re-perfusion group, P<0.027 (Fig. 1, n=6)", "procedure": "Effect of the inventive compound on an ophthalmic nerve cell disorder in rats was tested using a central retinal artery and vein ligation model, which is a model for examining increase in a calcium amount in an optic nerve cell.\nMale SD rats (body weight 150 g) were grouped into a normal group, ischemic re-perfusion group and inventive compound administration group. The ischemic re-perfusion group and the inventive compound administration group were anesthetized with pentobarbital 50 mg/kg, and the central retinal artery and vein were ligated with an arterial aneurysm clip for hemostasis for 55 minutes. At 7 days from declamping, eyeballs were removed and fixed with 4% formaldehyde to prepare a tissue sample. After embedding in paraffin according to a conventional method, a thin slice (2 µm thick) was prepared by horizontal section vertical to a surface of the retina including the optic disc, and stained with hematoxylin-eosin. The number of retinal ganglion cells per a 0.25 mm retina vertical section at a certain distance (1-2 mm) from the optic disc was counted under an optical microscope. As regards the normal group, the number of retinal ganglion cells was counted in the same manner only with exposure of the central retinal artery and vein and without hemostasis. […]\nSignificance was detected by the Student's t-Test."}, "retinal ganglion cells [2]": {"system": "retinal ganglion cells", "test": "cell death induction by increased intracellular calcium amount (kainic acid) in isolated retinal ganglion cells, MTT", "format": "cell-based", "conditions": "retinal ganglion cells of 8-day-old rats, 5 mM calcium chloride, pH 6.0, 1 h pre-incubation with compound, then 200 µM kainic acid, vs cell death induction group, P<0.01 (Fig. 2)", "procedure": "The retina was obtained from ten 8-day-old rats and treated with papain to give a cell suspension. Using a non-coat dish (TERUMO) and a dish (CORNING) coated with Thy-1.1 antibody (American Type Culture Collection, […]), retinal ganglion cells alone were isolated from the whole cells of the retina. The retinal ganglion cells on the dish were trypsinized and recovered. Then the recovered retinal ganglion cells were plated on a 96 well plate coated with poly-D-lysine and laminin at a concentration of 5000 cells/well/100 μl. The isolated retinal ganglion cells were divided for the normal group, cell death induction group and inventive compound administration group. As the cultures of the cell death induction group and inventive compound administration group, calcium chloride was added to Neurobasal medium (GIBCO) at a final concentration of 5 mM to adjust its pH to 6.0 and used. As the additives to the culture, 40 ng/ml BDNF (Pepro Tech), 40 ng/ml CNTF (Sigma), 5 μM Forskolin (Sigma), 1 mM glutamine (Wako), 50x B27 supplement (GIBCO) and Pen-strep (GIBCO) were added. For the inventive compound administration group, the inventive compound was added simultaneously with the plating of the cells and pre-incubated at 37°C for 1 h. After 1 h, kainic acid having a final concentration of 200 μM was added and the mixture was incubated at 37°C to induce cell death. […]"}, "[3]": {"system": "ischemic retinal neurocyte disorder", "conditions": "calcium antagonists; experiment models such as high ocular pressure rat models and central retinal artery and vein ligation models; cited from earlier work"}}}
{"molecule": "C=CCN1CCN(CC(C)(C)COC(=O)C2=C(C)NC(C)=C(C(=O)OC)C2c2cccc([N+](=O)[O-])c2)CC1.Cl.Cl", "note": "(stereo not drawn) [inventive compound, 3-(4-allyl-1-piperazinyl)-2,2-dimethylpropyl methyl 2,6-dimethyl-4-(m-nitrophenyl)-1,4-dihydropyridine-3,5-dicarboxylate dihydrochloride]", "values": [{"measurement": "number of residual retinal ganglion cells in 0.25 mm of vertical retinal cross section", "setting": "retinal ganglion cells [1]", "value": "significantly inhibited decrease in the retinal ganglion cell count"}, {"measurement": "viability (%) relative to that of a normal group (retinal ganglion cell count)", "setting": "retinal ganglion cells [2]", "value": "significantly inhibited decrease in the retinal ganglion cell count"}]}
{"molecule": "Fc1ccc(C(c2ccc(F)cc2)N2CCN(C/C=C/c3ccccc3)CC2)cc1", "note": "[flunarizine]", "values": [{"measurement": "inhibition of ischemic retinal neurocyte disorder", "setting": "[3]", "value": "inhibited ischemic retinal neurocyte disorder"}]}
